We go through five compounds from paper PMC4423596 (Angewandte Chemie (International ed. in English), 2015).

In experiment [1] the target is T1, CBP/p300 KIX domain (Mus musculus, UniProt P45481). Put plainly: PrOF NMR ligand titration. It counts as binding.
Experiment [2] has as its target T1, CBP/p300 KIX domain. In words: PrOF NMR chemical shift perturbation at fixed ligand concentration. As to conditions: 3FY-labeled KIX; 833 µM to 5 mM small molecule. Type of experiment: binding.
For the next experiment, the system named is MLL-KIX PPI site. As to conditions: cited from earlier work.

T1 sequence (P45481 586-665): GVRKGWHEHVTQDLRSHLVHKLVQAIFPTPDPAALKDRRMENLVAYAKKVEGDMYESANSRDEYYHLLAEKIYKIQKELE

Consider `CC(C(=O)O)c1ccc(-c2ccccc2)c(F)c1` (stereo not drawn) [Flurbiprofen, flurbiprofen], for which the Kd at CBP/p300 KIX domain [1] worked out at 5900 ± 600 µM. In addition, the “Ligand Efficiency” value on CBP/p300 KIX domain [1] (calculated from the PrOF Kd) is reported as 0.17 kcal mol^−1 NHA^−1.

As for `CC(C)Cc1ccc(C(C)C(=O)O)cc1` (stereo not drawn) [ibuprofen], the “chemical shift perturbation (PrOF NMR), in words” value on CBP/p300 KIX domain [2] was “significant chemical shift perturbations”.

For `CCCCCc1c2c(cc(O)c1C(=O)O)OC(=O)c1c(cc(OC)cc1C(=O)CCCC)O2` [lobaric acid], in the experiment with MLL-KIX PPI site, the IC50 was 17 µM.

Take `CCCc1cc(OC)cc(O)c1C(=O)Oc1c(OC)cc(CCC)c(C(=O)O)c1O` [sekikaic acid]: in the experiment with MLL-KIX PPI site, the IC50 was 34 µM.

On to `O=C(Nc1ccc(Cl)cc1)c1cc2ccccc2cc1OP(=O)(O)O` [KG-501, Naphthol AS-E phosphate], for which, at CBP/p300 KIX domain [2], the “chemical shift perturbation (PrOF NMR), in words” value is on record as “identified a binding interaction”.

One may read the Kd as a measure of binding affinity in units of concentration. Broadly, the IC50 is the midpoint of a concentration-inhibition curve.
